Values quoted from earlier work, collected in patent US20220235022A1 (priority 2019, published 2022).

Experiments:
[1] = conjugate acid of the base, approximate values
[2] = compared with Δ^9-THC; reported

| SMILES | pKa (conjugate acid in DMSO) [1] | less potent in terms of psychoactivity [2] |
| --- | --- | --- |
| Cc1cccc(C)n1 [2,6-dimethylpyridine] | 4.46 | – |
| CCCCCc1cc(O)c2c(c1)OC(C)(C)[C@@H]1CC=C(C)C[C@@H]21 [Δ^8-THC, Δ^8-tetrahydrocannabinol] | – | approximately 50% |
